According to ChEMBL document CHEMBL1765013, “Structure-activity relationships in a series of C2-substituted gluco-configured tetrahydroimidazopyridines as β-glucosidase inhibitors” (Bioorg Med Chem, 2011):

Assay: Inhibition of sweet almond beta-glucosidase after 10 mins using 4-nitrophenylbeta-D-glucopyranoside as a substrate by Lineweaver-Burk and double reciprocal analysis
Design: species or system Prunus dulcis

Row | SMILES | Ki [nM]
1 | OC[C@@H]1[C@@H](O)[C@H](O)[C@@H](O)c2nc(CCc3ccc(-c4ccccc4)cc3)cn21 | 24.5
2 | OC[C@@H]1[C@@H](O)[C@H](O)[C@@H](O)c2nc(CCc3ccccc3)cn21 | 1.9
3 | OC[C@@H]1[C@@H](O)[C@H](O)[C@@H](O)c2nc(CCc3ccc(C4CCCCC4)cc3)cn21 | 56.1
4 | OC[C@@H]1[C@@H](O)[C@H](O)[C@@H](O)c2nccn21 | 100
5 | Cc1ccc(CCc2cn3c(n2)[C@H](O)[C@@H](O)[C@H](O)[C@H]3CO)cc1 | 0.58
6 | O=C(CCc1cn2c(n1)[C@H](O)[C@@H](O)[C@H](O)[C@H]2CO)Nc1ccccc1 | 6.8
7 | CC(C)(CCc1cn2c(n1)[C@H](O)[C@@H](O)[C@H](O)[C@H]2CO)C(=O)Nc1ccccc1 | 3.5
8 | CC(C)(C)CCc1cn2c(n1)[C@H](O)[C@@H](O)[C@H](O)[C@H]2CO | 0.64
9 | CCCCCCCCc1cn2c(n1)[C@H](O)[C@@H](O)[C@H](O)[C@H]2CO | 10.7
10 | COc1ccc(CCc2cn3c(n2)[C@H](O)[C@@H](O)[C@H](O)[C@H]3CO)cc1 | 2
11 | OC[C@@H]1[C@@H](O)[C@H](O)[C@@H](O)c2nc(CCc3ccc(F)cc3)cn21 | 3.2
